Reference: ChEMBL document CHEMBL4616652, “Bioactive Polyhydroxanthones from Penicillium purpurogenum” (J Nat Prod, 2020)
pIC50: −log10 of the molar value. In brackets after ≈: the same amount, converted by molar mass. Where a name gives a salt, the structure may show the parent alone.

What was measured:
Staphylococcus aureus [1] = test: Antimicrobial activity against methicillin-resistant Staphylococcus aureus incubated for 7 hrs by alamar Blue assay; type: functional
Staphylococcus aureus [2] = test: Antimicrobial activity against Staphylococcus aureus incubated for 7 hrs by alamar Blue assay; type: functional
Shigella dysenteriae = test: Antimicrobial activity against Shigella dysenteriae incubated for 7 hrs by alamar Blue assay; type: functional
A549 = test: Cytotoxicity against human A549 cells after 72 hrs by MTT assay; type: functional, cell-based; conditions: A549, 72 h
HeLa = test: Cytotoxicity against human HeLa cells after 72 hrs by MTT assay; type: functional, cell-based
HepG2 = test: Cytotoxicity against human HepG2 cells after 72 hrs by MTT assay; type: functional, cell-based; conditions: HepG2, 72 h
Vero = test: Cytotoxicity against African green monkey Vero cells incubated for 72 hrs by MTT assay; type: cell-based; conditions: Chlorocebus sabaeus

| Compound | MIC (Staphylococcus aureus [1]) | MIC (Staphylococcus aureus [2]) | MIC (Shigella dysenteriae) | pIC50 (A549) | pIC50 (HeLa) | pIC50 (HepG2) | pIC50 (Vero) |
| --- | --- | --- | --- | --- | --- | --- | --- |
| NC[C@H]1O[C@H](O[C@H]2[C@H](O)[C@@H](O[C@H]3O[C@H](CO)[C@@H](O)[C@H](N)[C@H]3O)[C@H](N)C[C@@H]2N)[C@H](O)[C@@H](O)[C@@H]1O [KANAMYCIN] | > 100 µg/mL | 0.8 µg/mL (≈ 1.65 µM) | 0.2 µg/mL (≈ 0.413 µM) | – | – | – | – |
| CC1=C[C@H](O)[C@]2(O)C(=O)c3c(O)cccc3O[C@@]2(C)[C@H]1OC(=O)CCC(=O)O | – | > 100 µg/mL | > 100 µg/mL | < 4.30 | < 4.30 | < 4.30 | < 4.30 |
| C[C@@]12O[C@@H]1C(O)=C1C(=O)c3c(ccc(-c4ccc5c(c4O)C(=O)C4=C(O)[C@H]6O[C@@]6(C)[C@H](OC(=O)CCC(=O)O)[C@]4(C)O5)c3O)O[C@@]1(C)[C@H]2OC(=O)CCC(=O)O | 100 µg/mL (≈ 128 µM) | 12.5 µg/mL (≈ 16.1 µM) | 100 µg/mL (≈ 128 µM) | < 4.30 | < 4.30 | < 4.30 | < 4.30 |
| C[C@@]12O[C@@H]1[C@H](O)[C@]1(O)C(=O)c3c(O)cccc3O[C@@]1(C)[C@H]2O | – | > 100 µg/mL | > 100 µg/mL | < 4.30 | < 4.30 | < 4.30 | < 4.30 |
| COC(=O)CCC(=O)O[C@H]1[C@]2(C)O[C@@H]2C(O)=C2C(=O)c3c(ccc(-c4ccc5c(c4O)C(=O)C4=C(O)[C@H]6O[C@@]6(C)[C@H](OC(=O)CCC(=O)OC)[C@]4(C)O5)c3O)O[C@]21C | 0.4 µg/mL (≈ 0.496 µM) | 0.4 µg/mL (≈ 0.496 µM) | 6.3 µg/mL (≈ 7.81 µM) | 6.22 | 6.52 | 6.30 | < 4.30 |
| COC(=O)CCC(=O)O[C@H]1[C@]2(C)O[C@@H]2C(O)=C2C(=O)c3c(ccc(-c4ccc5c(c4O)C(=O)C4=C(O)[C@H]6O[C@@]6(C)[C@H](OC(=O)CCC(=O)O)[C@]4(C)O5)c3O)O[C@]21C | 12.5 µg/mL (≈ 15.8 µM) | 3.1 µg/mL (≈ 3.91 µM) | 6.3 µg/mL (≈ 7.95 µM) | 4.49 | 5.12 | 5.32 | < 4.30 |
| C[C@@]12O[C@]3(C(=O)c4c(O)cccc4O[C@@]3(C)[C@H]1O)[C@@H](O)[C@H]2O | – | > 100 µg/mL | > 100 µg/mL | < 4.30 | < 4.30 | < 4.30 | < 4.30 |
| CN[C@H](CC(C)C)C(=O)N[C@H]1C(=O)N[C@@H](CC(N)=O)C(=O)N[C@H]2C(=O)N[C@H]3C(=O)N[C@H](C(=O)N[C@H](C(=O)O)c4cc(O)cc(O)c4-c4cc3ccc4O)[C@H](O)c3ccc(c(Cl)c3)Oc3cc2cc(c3O[C@@H]2O[C@H](CO)[C@@H](O)[C@H](O)[C@H]2O[C@H]2C[C@](C)(N)[C@H](O)[C@H](C)O2)Oc2ccc(cc2Cl)[C@H]1O [VANCOMYCIN] | 0.8 µg/mL (≈ 0.552 µM) | – | – | – | – | – | – |
| C[C@@H]1C[C@@H](O)[C@@]2(O)C(=O)c3c(O)cccc3O[C@]2(C)[C@H]1O | – | > 100 µg/mL | > 100 µg/mL | < 4.30 | < 4.30 | < 4.30 | < 4.30 |
| CC1=C[C@H](O)[C@]2(O)C(=O)c3c(O)cccc3O[C@@]2(C)[C@H]1O | – | > 100 µg/mL | > 100 µg/mL | < 4.30 | < 4.30 | < 4.30 | < 4.30 |
| COc1cccc2c1C(=O)c1c(O)c3c(c(O)c1C2=O)C[C@@](O)(C(=O)CO)C[C@@H]3O[C@H]1C[C@H](N)[C@H](O)[C@H](C)O1 [DOXORUBICIN HYDROCHLORIDE] | – | – | – | 6.15 | 6.30 | – | – |
